{"source": "patent US20240358705A1", "about": "“COMPOSITIONS AND METHODS FOR TREATMENT OF CANCER” (Board of Supervisors of Louisiana State University and …, priority 2021, published 2024)", "key": {"[1]": {"system": "cytochrome family of enzymes", "details": "cited from earlier work"}, "B16": {"system": "B16", "experiment": "In vivo adoptive cellular transfer, pmel-I, B16 tumor", "design": "species or system mouse", "details": "T cells pre-treated with 10 μM; B16 tumor bearing mice; vs sham and DMSO pre-treated", "method": "(§1) C57BL/6N mice were injected with 3×10^5 B16-OVA or B16 subcutaneously in the right flank. Five days after injection, mice were administered 200 μg cyclophosphamide monohydrate (Sigma #C73971G) dissolved in PBS by intraperitoneal injection to induce minor lymphodepletion. 48 hours after lymphodepletion, mice were intravenously adoptively transferred 2.5×10^6 CD8 OT-I or CD8 […] pre-treated ex vivo following the in vitro T cell activation method. Tumor growth rates were determined by tumor volume measurement beginning on day four and continuing three times per week for the study duration. Tumor volumes were determined by the ellipsoid formula: [(Length×Width^2)/2]. At the end of study, tumors were either fixed in 10% formalin or dissociated into a single-cell suspension for flow cytometry. Single-cell suspension was performed by chopping tumor tissue with scissors followed by a 30-minute incubation at 37° C. with 100 µg/ml DNase I (Roche #10104159001) and 0.5 U/ml Liberase (Roche #05401127001) in PBS. Solution was then diluted with cRPMI-1640 and passed through a 70 μm cell strainer, pelleted and resuspended in ACK lysis buffer to remove erythrocytes. Cells were then counted, filtered through a 70 μm cell strainer, and 10×10^6 cells were aliquoted and stained following the immune profiling by flow cytometry method."}, "CD8 T cells [2]": {"system": "CD8 T cells", "experiment": "XFe ATP rate assay, CD8 T cells", "type": "cell-based, mouse", "details": "10 μM, 72 hours", "method": "Lymph nodes and spleen were isolated from wild-type C57BL/6N mice. Tissue was mechanically dissociated with the back of a syringe plunger and passed through a 70 M filter. […] Treated cells were incubated at 37° C., 5% CO2 for the designed study duration.\nTreated CD8 T cell were prepared following the in vitro T cell activation method and incubated for 72 hours at 37° C., 5% CO2. Treated BM-MDSCs were prepared followed the in vitro BM-MDSCs differentiation method. The XFe ATP rate assay preparation and analysis was conducted following the manufacturer's user guide and instructions. […] Treated cells were removed from culture, pelleted and resuspended in warm assay medium at a concentration of 3×10^6 cells/ml (1.5×10^5 cells/well) for CD8 T cells and 2.6×10^6 cells/ml (1.3×10^5 cells/well) for BM-MDSCs. Cells were adhered to the culture plate by centrifugation 200×G, for one minute with zero brake per the manufacturer's instructions for immobilization of non-adherent cells (Agilent, Santa Clara, CA). […] Results were procured using the Seahorse XF real-time ATP rate assay report generator."}, "CD8 T cells [3]": {"system": "CD8 T cells", "experiment": "CD8 T cell differentiation by flow cytometry", "type": "cell-based, mouse", "details": "72 hours", "method": "Lymph nodes and spleen were isolated from wild-type C57BL/6N mice. Tissue was mechanically dissociated with the back of a syringe plunger and passed through a […] filter. […] Treated cells were incubated at 37° C., 5% CO2 for the designed study duration. […] After staining, cells were pelleted, resuspended and run by a BD FACSymphony A3 flow cytometer."}, "[4]": {"details": "cited from earlier work"}, "CD8 T cells [5]": {"system": "CD8 T cells", "experiment": "CFSE labeling and T cell proliferation", "type": "cell-based, mouse", "details": "72 hours", "method": "Lymph nodes and spleen were isolated from wild-type C57BL/6N mice. Tissue was mechanically dissociated with the back of a syringe plunger and passed through a […] filter. […] Treated cells were incubated at 37° C., 5% CO2 for the designed study duration. Isolated CD3 T cells were labeled with 1 μM CFDA SE (Thermo #V12883) for 15 minutes at 37° C. protected from light. […] Cells were pelleted, resuspended and plated in an antibody coated well with the indicated drug concentrations at time zero. Activated T cells were incubated at 37° C., 5% CO2 for 72 hours. After study duration, T cells were stained with anti-CD4, anti-CD8, anti-CD3 following the immune profiling by flow cytometry method and proliferation was measured by CFSE dilution."}, "[6]": {"system": "adoptively transferred CD8 OT-I T cells", "experiment": "Immune profiling and proliferation of in vivo vaccinated CD8 T cells", "design": "species or system mouse", "details": "for OT-I CD8 T cell proliferation, lymph node: vehicle MC 49.37%; for effector/memory CD8 OT-I T cells, splenic compartment: vehicle MC 12.53%; for adoptively transferred cells expressing PD-1, lymph node: vehicle MC 12.58%; for effector/memory CD8 OT-I T cells, lymph node: vehicle MC 23.11%; for OT-I CD8 T cell proliferation, splenic compartment: vehicle MC 30.68%; for naïve CD8 OT-I T cells, splenic compartment: vehicle MC 46.68%; for naïve CD8 OT-I T cells, lymph node: vehicle MC […]", "method": "Five hours later, mice were vaccinated by subcutaneous injection with […] (SEQ ID NO: 1) in IFA. 16 hours after vaccination, mice were administered 30 mg/kg or 90 mg/kg GLPG1205 suspended in 0.5% methylcellulose (Sigma #M0430100G) with 0.5% Tween-80 (Sigma #P4780100ML) (MC) orally once daily for three days. 96 hours post-vaccination, lymph node and spleen tissue were isolated for analysis. Single-cell suspensions were treated with ACK lysis to remove red blood cells, and then stained following the immune profiling by flow cytometry method. Treatment effectiveness was determined by the percent proliferation and PD-1 expression of adoptively transferred cells."}, "B16-OVA": {"system": "B16-OVA", "experiment": "In vivo adoptive cellular transfer, OT-I, B16-OVA tumor", "design": "species or system mouse", "method": "as §1, with “Single-cell suspension was performed by chopping tumor tissue with scissors followed by a 30-minute incubation at 37° C. with 100 µg/ml DNase I (Roche #10104159001) and 0.5 U/ml Liberase (Roche #05401127001) in PBS. Solution was then diluted with cRPMI-1640 and passed through a 70 μm cell strainer, pelleted and resuspended in ACK lysis buffer to remove erythrocytes.” left out"}}, "data": [{"smiles": "O=c1nc(OC[C@@H]2COCCO2)cc2n1CCc1cc(C#CC3CC3)ccc1-2", "note": "[GLPG1205, 9-Cyclopropylethynyl-2-((S)-1-[1,4]dioxan-2-ylmethoxy)-6,7-dihydropyrimido[6,1-a]isoquinolin-4-one]", "values": [{"measurement": "interaction with the cytochrome family of enzymes", "setting": "[1]", "result": "strong safety profiles"}, {"measurement": "tumor growth rate after adoptive transfer of pre-treated pmel-I CD8 T cells", "setting": "B16", "result": "significant reduction in the tumor growth rate"}, {"measurement": "percent of ATP generated by OXPHOS", "setting": "CD8 T cells [2]; DMSO 49%", "result": 39.7, "unit": "%"}, {"measurement": "percent of ATP generated by glycolysis", "setting": "CD8 T cells [2]; DMSO 51%", "result": 60.3, "unit": "%"}, {"measurement": "ATP production rate through mitochondrial OXPHOS (mitoATP)", "setting": "CD8 T cells [2]; DMSO 392.74", "result": 486.75, "unit": "pmol/min"}, {"measurement": "ATP production rate through glycolysis (glycoATP)", "setting": "CD8 T cells [2]; DMSO 409.61", "result": 737.62, "unit": "pmol/min"}, {"measurement": "total ATP production rate", "setting": "CD8 T cells [2]; DMSO control 816.19", "result": 1224.27, "unit": "pmol/min"}, {"measurement": "OCR, ECAR and PER", "setting": "CD8 T cells [2]; vs DMSO", "result": "raises the overall OCR, ECAR, and PER"}, {"measurement": "effector/memory CD8 compartment (CD62L−, CD44+), average increase compared to DMSO control", "setting": "CD8 T cells [3]; 3 μM", "result": 23.57, "unit": "%"}, {"measurement": "naïve CD8 T cell compartment (CD62L+, CD44−), average reduction compared to DMSO control", "setting": "CD8 T cells [3]; 3 μM", "result": 32.54, "unit": "%"}, {"measurement": "effector/memory CD8 compartment (CD62L−, CD44+), average increase compared to DMSO control", "setting": "CD8 T cells [3]; 10 μM", "result": 37.93, "unit": "%"}, {"measurement": "naïve CD8 T cell compartment (CD62L+, CD44−), average reduction compared to DMSO control", "setting": "CD8 T cells [3]; 10 μM", "result": 74.69, "unit": "%"}, {"measurement": "inflammatory response in ulcerative colitis", "setting": "[4]; in vivo", "result": "unable to improve the inflammatory response"}, {"measurement": "adverse outcome in ulcerative colitis study", "setting": "[4]; led to the drug's discontinuation", "result": "worsening of colitis in certain patients"}, {"measurement": "CD8 T cell proliferation, Log2 fold change compared DMSO control", "setting": "CD8 T cells [5]; 3 μM", "result": 0.48, "unit": "Log2 fold change"}, {"measurement": "CD8 T cell proliferation, increase vs DMSO", "setting": "CD8 T cells [5]; 3 μM", "result": 39.3, "unit": "%"}, {"measurement": "CD8 T cell proliferation, Log2 fold change compared DMSO control", "setting": "CD8 T cells [5]; 10 μM", "result": 0.78, "unit": "Log2 fold change"}, {"measurement": "CD8 T cell proliferation, increase vs DMSO", "setting": "CD8 T cells [5]; 10 μM", "result": 71.7, "unit": "%"}, {"measurement": "PD-1 expression, splenic compartment, compared to MC vehicle", "setting": "[6]; 30 mg/kg or 90 mg/kg", "result": "no significant increase"}, {"measurement": "OT-I CD8 T cell proliferation, lymph node", "setting": "[6]; 30 mg/kg orally once daily for 3 days", "result": 73.84, "unit": "%"}, {"measurement": "effector/memory CD8 OT-I T cells, splenic compartment", "setting": "[6]; 30 mg/kg", "result": 30.12, "unit": "%"}, {"measurement": "adoptively transferred cells expressing PD-1, lymph node", "setting": "[6]; 30 mg/kg", "result": 16.05, "unit": "%"}, {"measurement": "effector/memory CD8 OT-I T cells, lymph node", "setting": "[6]; 30 mg/kg", "result": 47.38, "unit": "%"}, {"measurement": "OT-I CD8 T cell proliferation, splenic compartment", "setting": "[6]; 30 mg/kg", "result": 50.99, "unit": "%"}, {"measurement": "naïve CD8 OT-I T cells, splenic compartment", "setting": "[6]; 30 mg/kg", "result": 26.16, "unit": "%"}, {"measurement": "naïve CD8 OT-I T cells, lymph node", "setting": "[6]; 30 mg/kg", "result": 12.87, "unit": "%"}, {"measurement": "OT-I CD8 T cell proliferation, lymph node", "setting": "[6]; 90 mg/kg orally once daily for 3 days", "result": 74.56, "unit": "%"}, {"measurement": "adoptively transferred cells expressing PD-1, lymph node", "setting": "[6]; 90 mg/kg, non-significant increase", "result": 15.75, "unit": "%"}, {"measurement": "effector/memory CD8 OT-I T cells, splenic compartment", "setting": "[6]; 90 mg/kg", "result": 37.72, "unit": "%"}, {"measurement": "effector/memory CD8 OT-I T cells, lymph node", "setting": "[6]; 90 mg/kg", "result": 53.97, "unit": "%"}, {"measurement": "OT-I CD8 T cell proliferation, splenic compartment", "setting": "[6]; 90 mg/kg", "result": 59.35, "unit": "%"}, {"measurement": "naïve CD8 OT-I T cells, splenic compartment", "setting": "[6]; 90 mg/kg", "result": 16.37, "unit": "%"}, {"measurement": "naïve CD8 OT-I T cells, lymph node", "setting": "[6]; 90 mg/kg", "result": 9.48, "unit": "%"}, {"measurement": "anti-tumor response (tumor volume) after adoptive transfer of pre-treated CD8 OT-I T cells", "setting": "B16-OVA; T cells pre-treated ex vivo with 10 μM, B16-OVA tumor bearing mice, vs sham and DMSO pre-treated", "result": "significantly enhanced this anti-tumor effect"}, {"measurement": "intratumoral CD8 T cells positive for SIINFEKL tetramer", "setting": "B16-OVA; T cells pre-treated with 10 μM, sham 20%, DMSO pre-treated 27.6%", "result": 53.7, "unit": "%"}]}]}
